Assay results from publication PMC4753412, “Involvement of an octose ketoreductase and two acyltransferases in the biosynthesis of paulomycins” (Scientific Reports, 2016).
Values after ≈ are worked out from the molar mass of the structure shown. Where two headings read alike, the source gives them in different places.

What was measured:
Test in all cases: microbe, parasite or virus in culture
Set-up in all cases: agar dilution antibacterial assay, minimum inhibitory concentration
[1] = test system: S. pneumoniae; conditions: Streptococcus pneumoniae, 24 h
Method: (§1) Antibacterial activity was determined by agar dilution method according to the method as described. […], […], Staphylococcus epidermidis, Staphylococcus aureus and Bacillus subtilis were used as the tested bacteria. After incubation for 24 h at 37 °C, the MICs were calculated (Table S3).

[2] = test system: Bacillus subtilis; conditions: 24 h
Method: as §1

[3] = test system: S. aureus; conditions: Staphylococcus aureus, 24 h
Method: as §1

[4] = test system: S. pyogenes; conditions: Streptococcus pyogenes, 24 h
Method: as §1

[5] = test system: S. epidermidis; conditions: Staphylococcus epidermidis, 24 h
Method: as §1

## CC=C(N=C=S)C(=O)OC1C(COC(C)=O)OC(C2(O)CC(=O)C(N)=C(C(=O)O)C2=O)C(O)C1OC1CC(OC)C(O)(C(C)OC(=O)C(C)CC)C(C)O1 (stereo not shown) [compound 3, 3]
[1]; read-out: MIC 3
  MIC: 0.05 µg/mL (≈ 0.0635 µM)
[2]; read-out: MIC 3
  MIC: 0.1 µg/mL (≈ 0.127 µM)
[3]; read-out: MIC 3
  MIC: 0.1 µg/mL (≈ 0.127 µM)
[4]; read-out: MIC 3
  MIC: 0.025 µg/mL (≈ 0.0318 µM)
[5]; read-out: MIC 3
  MIC: 0.05 µg/mL (≈ 0.0635 µM)

## C/C=C(\N=C=S)C(=O)O[C@H]1[C@@H](O[C@H]2C[C@H](OC)[C@@](O)([C@H](C)OC(=O)C(C)C)[C@H](C)O2)[C@@H](O)[C@H]([C@@]2(O)CC(=O)C(=N)C(C(=O)O)=C2O)O[C@@H]1COC(C)=O [compound 4, paulomycin B]
[1]; read-out: MIC 4
  MIC: 0.05 µg/mL (≈ 0.0647 µM)
[2]; read-out: MIC 4
  MIC: 0.1 µg/mL (≈ 0.129 µM)
[3]; read-out: MIC 4
  MIC: 0.1 µg/mL (≈ 0.129 µM)
[4]; read-out: MIC 4
  MIC: 0.025 µg/mL (≈ 0.0324 µM)
[5]; read-out: MIC 4
  MIC: 0.05 µg/mL (≈ 0.0647 µM)

## CC=C(N=C=S)C(=O)OCC1OC(C2(O)CC(=O)C(N)=C(C(=O)O)C2=O)C(O)C(OC2CC(OC)C(O)(C(C)OC(=O)C(C)C)C(C)O2)C1O (stereo not shown) [compound 8, 8]
[1]; read-out: MIC 8
  MIC: > 100 µg/mL
[2]; read-out: MIC 8
  MIC: > 100 µg/mL
[3]; read-out: MIC 8
  MIC: > 100 µg/mL
[4]; read-out: MIC 8
  MIC: > 50 µg/mL
[5]; read-out: MIC 8
  MIC: > 100 µg/mL

## CC=C(N=C=S)C(=O)OCC1OC(C2(O)CC(=O)C(N)=C(C(=O)O)C2=O)C(O)C(OC2CC(OC)C(O)(C(C)OC(=O)C(C)CC)C(C)O2)C1O (stereo not shown) [compound 9, 9]
[1]; read-out: MIC 9
  MIC: > 100 µg/mL
[2]; read-out: MIC 9
  MIC: > 100 µg/mL
[3]; read-out: MIC 9
  MIC: > 100 µg/mL
[4]; read-out: MIC 9
  MIC: > 50 µg/mL
[5]; read-out: MIC 9
  MIC: > 100 µg/mL

## CC=C(N=C=S)C(=O)OCC1OC(C2(O)CC(=O)C(N)=C(C(=O)O)C2=O)C(O)C(OC2CC(OC)C(O)(C(C)=O)C(C)O2)C1O (stereo not shown) [compound 10, 10]
[1]; read-out: MIC 10
  MIC: > 100 µg/mL
[2]; read-out: MIC 10
  MIC: > 100 µg/mL
[3]; read-out: MIC 10
  MIC: > 100 µg/mL
[4]; read-out: MIC 10
  MIC: > 100 µg/mL
[5]; read-out: MIC 10
  MIC: > 100 µg/mL
